Earlier results as cited in patent US6107271A, “Neuroactive peptides” (NYXIS Neuro Therapies, Inc., priority 1998, dated 2000).

Test system: rabbits
Conditions: peripheral injections; cited from earlier work

N[C@@H]1CONC1=O [D-cycloserine]
learning rates in trace eyeblink conditioning: doubled
